According to ChEMBL document CHEMBL4052762, “Synthesis and biological evaluation of pyrrole-based chalcones as CYP1 enzyme inhibitors, for possible prevention of cancer and overcoming cisplatin resistance” (Bioorg Med Chem Lett, 2017):

Columns and labels:
[1] = Selectivity ratio of IC50 for human CYP2D6 expressed in HEK293 cells to IC50 for human CYP1A2 expressed in HEK293 cells
[2] = Selectivity ratio of IC50 for human CYP3A4 expressed in HEK293 cells to IC50 for human CYP1A1 expressed in HEK293 cells
[3] = Selectivity ratio of IC50 for human CYP2C9 expressed in HEK293 cells to IC50 for human CYP1A1 expressed in HEK293 cells
[4] = organism: Homo sapiens; experiment: Selectivity ratio of IC50 for human CYP3A4 bound to yeast microsomal membrane to IC50 for human CYP1B1 bound to yeast microsomal membrane
[5] = biological target: T1, Aryl hydrocarbon receptor (Homo sapiens, UniProt P35869); experiment: Antagonist activity at human AhR expressed in Saccharomyces cerevisiae W303-1A (ATCC 208352) transformed with an episomal plasmid containing a minimal CYC1 promoter, with a concatemer of five XRE enhancer sequences, linked to eGFP reporter gene and co-expressing ARNT assessed as inhibition of B[a]P agonist induced XRE-driven eGFP expression after 18 hrs by fluorescence assay; details: for inhibition (INH): human, 18 h
T1 sequence (P35869 whole entry): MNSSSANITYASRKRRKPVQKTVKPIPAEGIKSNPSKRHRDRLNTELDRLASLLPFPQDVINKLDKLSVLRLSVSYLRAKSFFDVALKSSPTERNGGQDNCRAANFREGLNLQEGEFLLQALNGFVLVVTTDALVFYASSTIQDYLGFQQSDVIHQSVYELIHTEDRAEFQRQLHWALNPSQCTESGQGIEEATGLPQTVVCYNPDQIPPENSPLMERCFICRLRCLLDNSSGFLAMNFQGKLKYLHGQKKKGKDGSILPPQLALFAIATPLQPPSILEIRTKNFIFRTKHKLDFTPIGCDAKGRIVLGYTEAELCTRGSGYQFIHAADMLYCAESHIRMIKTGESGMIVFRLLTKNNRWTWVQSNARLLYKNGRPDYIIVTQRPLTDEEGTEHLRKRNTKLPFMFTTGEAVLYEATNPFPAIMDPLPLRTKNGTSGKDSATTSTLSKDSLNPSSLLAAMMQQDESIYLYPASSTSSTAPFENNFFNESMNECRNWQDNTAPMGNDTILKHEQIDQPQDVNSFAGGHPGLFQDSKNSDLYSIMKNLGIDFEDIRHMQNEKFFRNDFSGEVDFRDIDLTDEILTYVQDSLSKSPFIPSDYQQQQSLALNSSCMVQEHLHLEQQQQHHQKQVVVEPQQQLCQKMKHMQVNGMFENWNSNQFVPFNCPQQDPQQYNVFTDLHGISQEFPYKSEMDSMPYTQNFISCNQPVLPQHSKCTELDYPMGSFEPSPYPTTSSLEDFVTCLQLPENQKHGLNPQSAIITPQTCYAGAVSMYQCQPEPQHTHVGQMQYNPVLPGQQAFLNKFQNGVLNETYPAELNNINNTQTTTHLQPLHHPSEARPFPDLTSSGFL

[6] = biological target: T2, Cytochrome P450 1A1 (Homo sapiens, UniProt P04798); experiment: Inhibition of human CYP1A1 transfected in HEK293 cells assessed as protection against CYP1A1 mediated B[a]P toxicity at 20 uM by MTT assay; assay type: cell-based; details: hek293, 20 µM
T2 sequence (P04798 whole entry): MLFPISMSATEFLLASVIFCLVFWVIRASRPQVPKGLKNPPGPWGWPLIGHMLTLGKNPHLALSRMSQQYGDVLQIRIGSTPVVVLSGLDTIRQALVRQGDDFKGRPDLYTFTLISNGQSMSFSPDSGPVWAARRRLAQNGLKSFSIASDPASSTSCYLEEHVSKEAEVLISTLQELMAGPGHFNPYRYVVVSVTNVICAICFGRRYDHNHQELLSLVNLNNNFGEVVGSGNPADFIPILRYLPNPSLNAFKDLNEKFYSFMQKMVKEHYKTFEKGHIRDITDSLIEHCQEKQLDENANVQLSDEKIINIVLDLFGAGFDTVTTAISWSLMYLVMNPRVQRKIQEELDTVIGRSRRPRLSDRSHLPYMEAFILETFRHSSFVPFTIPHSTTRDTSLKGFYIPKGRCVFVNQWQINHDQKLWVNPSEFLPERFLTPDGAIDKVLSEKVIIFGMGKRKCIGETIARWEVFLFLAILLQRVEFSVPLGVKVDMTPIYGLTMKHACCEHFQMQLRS

[7] = organism: Homo sapiens; experiment: Selectivity ratio of IC50 for human CYP3A4 bound to yeast microsomal membrane to IC50 for human CYP1A1 bound to yeast microsomal membrane
[8] = Selectivity ratio of IC50 for human CYP2C19 expressed in HEK293 cells to IC50 for human CYP1B1 expressed in HEK293 cells
[9] = Selectivity ratio of IC50 for human CYP3A4 expressed in HEK293 cells to IC50 for human CYP1B1 expressed in HEK293 cells
[10] = Selectivity ratio of IC50 for human CYP2C9 expressed in HEK293 cells to IC50 for human CYP1B1 expressed in HEK293 cells
[11] = organism: Homo sapiens; experiment: Selectivity ratio of IC50 for human CYP2C9 bound to yeast microsomal membrane to IC50 for human CYP1B1 bound to yeast microsomal membrane
[12] = organism: Homo sapiens; experiment: Selectivity ratio of IC50 for human CYP2C19 bound to yeast microsomal membrane to IC50 for human CYP1A2 bound to yeast microsomal membrane
[13] = biological target: T2, Cytochrome P450 1A1; experiment: Inhibition of human CYP1A1 transfected in HEK293 cells assessed as protection from CYP1A1 mediated B[a]P toxicity at 8 times IC50 by MTT assay; assay type: cell-based
[14] = biological target: T3, Cytochrome P450 1B1 (Homo sapiens, UniProt Q16678); experiment: Inhibition of human CYP1B1 transfected in HEK293 cells assessed as reduction in cisplatin EC50 at 20 uM by MTT assay; assay type: cell-based; details: hek293, 20 µM
T3 sequence (Q16678 whole entry): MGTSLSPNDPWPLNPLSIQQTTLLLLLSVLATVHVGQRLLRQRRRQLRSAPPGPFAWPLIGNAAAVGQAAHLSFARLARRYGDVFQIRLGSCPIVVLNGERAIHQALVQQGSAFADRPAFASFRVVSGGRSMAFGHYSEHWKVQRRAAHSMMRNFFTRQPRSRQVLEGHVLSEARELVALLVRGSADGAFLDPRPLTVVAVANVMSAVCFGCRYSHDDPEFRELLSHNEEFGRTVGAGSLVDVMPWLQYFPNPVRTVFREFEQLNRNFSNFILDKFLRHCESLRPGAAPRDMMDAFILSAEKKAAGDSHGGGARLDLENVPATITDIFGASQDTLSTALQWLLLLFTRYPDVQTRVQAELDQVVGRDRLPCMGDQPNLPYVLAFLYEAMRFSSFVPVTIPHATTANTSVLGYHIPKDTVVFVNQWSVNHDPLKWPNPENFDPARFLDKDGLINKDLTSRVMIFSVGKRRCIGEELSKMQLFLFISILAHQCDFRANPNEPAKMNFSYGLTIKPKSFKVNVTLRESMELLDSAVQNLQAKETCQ

Structure (SMILES): O=C(/C=C/c1ccccc1Cl)c1ccc[nH]1
- Ratio IC50 [1]: >20
- Ratio IC50 [2]: >20
- Ratio IC50 [3]: >20
- Ratio IC50 [4]: > 20
- IC50 [5]: 7.6 µM
- inhibition (INH) [5]: Dose-dependent effect
- inhibition (INH) [6]: Not Active
- Ratio IC50 [7]: > 20
- Ratio IC50 [8]: >20
- Ratio IC50 [9]: >20
- Ratio IC50 [10]: >20
- Ratio IC50 [11]: > 20
- Ratio IC50 [12]: > 20

Structure (SMILES): COc1ccccc1/C=C/C(=O)c1ccc[nH]1
- Ratio IC50 [1]: >20
- Ratio IC50 [2]: >20
- Ratio IC50 [3]: >20
- Ratio IC50 [4]: > 20
- IC50 [5]: 1.5 µM
- inhibition (INH) [5]: Dose-dependent effect
- Ratio IC50 [7]: > 20
- Ratio IC50 [8]: >20
- Ratio IC50 [9]: >20
- Ratio IC50 [10]: >20
- inhibition (INH) [13]: Active
- Ratio IC50 [11]: > 20
- Ratio IC50 [12]: > 20

Structure (SMILES): O=C(/C=C/c1ccc(OC(F)(F)F)cc1)c1ccc[nH]1
- inhibition (INH) [6]: Not Active
- inhibition (INH) [14]: Not Active
